# Laboratory results reported in paper PMC10363480 (Plant Communications, 2023).
# “Also recorded” adds a separate entry of the source.
# Tested on: mitochondria or chloroplast of Chlamydomonas reinhardtii
# Assay: Subcellular localization of Venus reporter by epifluorescence microscopy (manual targeting assignment)
# Format: cell-based
# Settings: 15 N-terminal residues of RCA1-cTP added, no C-terminal element; Figure 2
# Procedure, shortened: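 Targeting peptide variants fused to Venus reporter, transformed into Chlamydomonas wild-type T222+ (CC-5101); three independent transformant lines per construct. Localization assigned manually from epifluorescence images using chlorophyll autofluorescence for chloroplast and 0.1 μM MitoTracker Red CMXRos (30 min) for mitochondria. Automated segmentation used for validation.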
row,Sequence,chloroplast targeting upon sole addition of cTP-N (^cP)
1,"GKIPVKAIKKAGAAIGKGLRAINIASTAHDVYSFFKPKHKKK [SIM, SI moricin, HA-RAMP antimicrobial peptide, reference compound]",at least partial chloroplast targeting; also recorded: generated chloroplast targeting

# Same assay, conditions: C-terminal element of RCA1-cTP added to the named peptide; Figure 2 rows E and F; bare name = K and R versions
row,Sequence,chloroplast targeting upon addition of cTP-C (P^c)
1,"VNYGNGVSCSKTKCSVNWGIITHQAFRVTSGVASG [B15, bacillocin 1580, HA-RAMP antimicrobial peptide, reference compound]",enabled chloroplast targeting

# Same assay, conditions: Figure 2; bare name = K and R versions
row,Sequence,targeting when combining cTP-N with mTP-C (^cP^m)
1,"VNYGNGVSCSKTKCSVNWGIITHQAFRVTSGVASG [B15, bacillocin 1580, HA-RAMP antimicrobial peptide, reference compound]",chloroplast targeting
2,"GKIPVKAIKKAGAAIGKGLRAINIASTAHDVYSFFKPKHKKK [SIM, SI moricin, HA-RAMP antimicrobial peptide, reference compound]",chloroplast targeting
3,"GLFSKFNKKKIKSGLIKIIKTAGKEAGLEALRTGIDVIGCKIKGEC [E1S, esculentin-1SEA, HA-RAMP antimicrobial peptide, reference compound]",chloroplast targeting

# Same assay, conditions: manual targeting assignment of the Venus reporter construct in Chlamydomonas: Neither / Mitochondria / Chloroplast / Dual, (partial) = partial targeting
row,Sequence,Localisation
1,MQVTMKSSAVSGQRVGGARVATRLTQTAESFRGVSSQFFDAPNGPSVKQVLIEDEW [c.CH.R.m],Neither
2,MGWIRDFGRRIERVGQHTRDATIQTIAVAQQAANVAATLRGSVRRAQLQVVASSRKQMGRWRSIDAGVDASDDQ [S1D.R.c],Chloroplast (partial)
3,MLKRVGQSLVPFARAGLTQTAESFRGVSSQFFDAPNGPSVKQVLIEDEW [MH.R.m],Mitochondria (partial)
4,MDEVNNDNCRIRFRGDISSESDRMNINY [RP2.R],Neither
5,MLKRVGQSLVPFARAGSVRRAQLQVVASSRKQMGRWRSIDAGVDASDDQ [MH.R.c],Dual
6,MQVTMKSSAVSGQRVGRIPVRAIRRAGAAIGRGLRAINIASTAHDVYSFFRPRHRRR [c.SIM.R],Chloroplast
7,MQVTMKSSAVSGQRVALWRTMLRRLGTMALHAGRAAFGAAADTISQ [c.DDM.R],Mitochondria (partial)
8,MGLLLDTLRGAARDIAGIALERLRCRITGCRPSVRRAQLQVVASSRKQMGRWRSIDAGVDASDDQ [R2G.R.c],Neither
9,MQVTMKSSAVSGQRVRYYGNGVSCNRRGCSVDWGRAIGIIGNNAAANLTTGGRAGWRG [c.EHF.R],Chloroplast (partial)
10,MLKKVGQSLVPFAKAGSVRRAQLQVVASSRKQMGRWRSIDAGVDASDDQ [MH.K.c],Dual
11,MQVTMKSSAVSGQRVSFLTTFRDLAIRAARSAGQSVLSTLSCRLSNTC [c.B2I.R],Mitochondria (partial)
12,MQVTMKSSAVSGQRVMLKKVGQSLVPFAKAGLTQTAESFKGVSSQFFDAPNGPSVKQVLIEDEW [c.MH.K.m],Neither

# Same assay, conditions: peptide-Venus reporter construct expressed in Chlamydomonas reinhardtii; manual targeting assignment (Neither / Mitochondria / Chloroplast / Dual; partial = partial targeting)
row,Sequence,Localisation
1,MQVTMKSSAVSGQRVMGLFSKFNKKKIKSGLIKIIKTAGKEAGLEALRTGIDVIGCKIKGECSVRRAQLQVVASSRKQMGRWRSIDAGVDASDDQ [c.E1S.K.c],Chloroplast
2,MWLSKTAKKLENSAKKRISEGIAIAIKGGSR [CP3.K],Neither
3,MVNYGNGVSCSKTKCSVNWGIITHQAFRVTSGVASGLTQTAESFRGVSSQFFDAPNGPSVKQVLIEDEW [B15.K.m],Neither
4,MVNYGNGVSCSRTRCSVNWGIITHQAFRVTSGVASGLTQTAESFRGVSSQFFDAPNGPSVKQVLIEDEW [B15.R.m],Neither

# Same assay, conditions: targeting of the Venus reporter fused to the peptide, expressed in Chlamydomonas reinhardtii; manual assignment from epifluorescence microscopy; full or partial
row,Sequence,Localisation
1,MQVTMKSSAVSGQRVMKYYGNGVSCNKKGCSVDWGKAIGIIGNNAAANLTTGGKAGWKGSVRRAQLQVVASSRKQMGRWRSIDAGVDASDDQ [c.EHF.K.c],Chloroplast
2,MKYYGNGVSCNKKGCSVDWGKAIGIIGNNAAANLTTGGKAGWKG [EHF.K],Neither
3,MSFLTTFKDLAIKAAKSAGQSVLSTLSCKLSNTCLTQTAESFRGVSSQFFDAPNGPSVKQVLIEDEW [B2I.K.m],Mitochondria
4,MGKIPVKAIKKAGAAIGKGLRAINIASTAHDVYSFFKPKHKKK [SIM.K],Neither
5,MQVTMKSSAVSGQRVFLPLLAGLAANFLPKIFCKITRKCLTQTAESFRGVSSQFFDAPNGPSVKQVLIEDEW [c.B1E.K.m],Dual
6,MQVTMKSSAVSGQRVMSFLTTFKDLAIKAAKSAGQSVLSTLSCKLSNTC [c.B2I.K],Mitochondria (partial)
7,MQVTMKSSAVSGQRVMGKIPVKAIKKAGAAIGKGLRAINIASTAHDVYSFFKPKHKKK [c.SIM.K],Chloroplast (partial)
